From PubChem BioAssay AID2060502 (Molecular Pharmacology Branch, DTP, NCI, 2025)

System: 885724-159-R-J1-PDC complex spheroid viability
Assay: Anticancer human tumor 885724-159-R-J1-PDC patient-derived pancreatic adenocarcinoma cell line growth inhibition [GQUAD]
Conditions: for IC50: curve of first compound; for viability, T/C: stronger effect = lower value
In short: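 Tumor cells were grown as complex spheroids with HUVEC endothelial cells and mesenchymal stem cells as stroma. G-quadruplex stabilizers were combined with targeted agents over half-log dilutions from near the clinical Cmax, or from 10 microM.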

[1] = second compound 0.0316 µM, first compound 0.0316 µM
[2] = second compound 0.0316 µM, first compound 0.1 µM
[3] = second compound 0.0316 µM, first compound 0.316 µM
[4] = second compound 0.0316 µM, first compound 1 µM
[5] = second compound 0.0316 µM, first compound 3.16 µM
[6] = second compound 0.0316 µM, first compound 10 µM
[7] = second compound 0.1 µM, first compound 0.0316 µM
[8] = second compound 0.1 µM, first compound 0.1 µM
[9] = second compound 0.1 µM, first compound 0.316 µM
[10] = second compound 0.1 µM, first compound 1 µM
[11] = second compound 0.1 µM, first compound 3.16 µM
[12] = second compound 0.1 µM, first compound 10 µM
[13] = second compound 0.316 µM, first compound 0.0316 µM
[14] = second compound 0.316 µM, first compound 0.1 µM
[15] = second compound 0.316 µM, first compound 0.316 µM
[16] = second compound 0.316 µM, first compound 1 µM
[17] = second compound 0.316 µM, first compound 3.16 µM
[18] = second compound 0.316 µM, first compound 10 µM
[19] = second compound 1 µM, first compound 0.0316 µM
[20] = second compound 1 µM, first compound 0.1 µM
[21] = second compound 1 µM, first compound 0.316 µM
[22] = second compound 1 µM, first compound 1 µM
[23] = second compound 1 µM, first compound 3.16 µM
[24] = second compound 1 µM, first compound 10 µM
[25] = second compound 3.16 µM, first compound 0.0316 µM
[26] = second compound 3.16 µM, first compound 0.1 µM
[27] = second compound 3.16 µM, first compound 0.316 µM
[28] = second compound 3.16 µM, first compound 1 µM
[29] = second compound 3.16 µM, first compound 3.16 µM
[30] = second compound 3.16 µM, first compound 10 µM
[31] = second compound 10 µM, first compound 0.0316 µM
[32] = second compound 10 µM, first compound 0.1 µM
[33] = second compound 10 µM, first compound 0.316 µM
[34] = second compound 10 µM, first compound 1 µM
[35] = second compound 10 µM, first compound 3.16 µM
[36] = second compound 10 µM, first compound 10 µM
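Note: spheroids exposed to agents for seven days before readout.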
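Throughout, for viability, T/C: percent of vehicle control viability where 100% = DMSO wells.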

SMILES: CC(C)(O)C1CCC(Nc2ccc3ncc(-c4cccc(C(F)(F)F)c4)n3n2)CC1 (stereo not drawn) + CN(C)c1ccc(Nc2c3ccc(NC(=O)CCN4CCCC4)cc3nc3cc(NC(=O)CCN4CCCC4)ccc23)cc1
- IC50 (second compound 0.0316 µM): 2730 nM
- IC50 (second compound 0.1 µM): 3140 nM
- IC50 (second compound 0.316 µM): 1880 nM
- IC50 (second compound 1 µM): 1620 nM
- IC50 (second compound 3.16 µM): 764 nM
- IC50 (second compound 10 µM): 1190 nM
- viability, T/C [1]: 109%
- viability, T/C [2]: 98%
- viability, T/C [3]: 87%
- viability, T/C [4]: 70.5%
- viability, T/C [5]: 42.1%
- viability, T/C [6]: 41.2%
- viability, T/C [7]: 97.7%
- viability, T/C [8]: 92.8%
- viability, T/C [9]: 80.3%
- viability, T/C [10]: 71.2%
- viability, T/C [11]: 44.8%
- viability, T/C [12]: 44.1%
- viability, T/C [13]: 83.7%
- viability, T/C [14]: 84.2%
- viability, T/C [15]: 71.6%
- viability, T/C [16]: 64.1%
- viability, T/C [17]: 38%
- viability, T/C [18]: 35.7%
- viability, T/C [19]: 83.6%
- viability, T/C [20]: 67.9%
- viability, T/C [21]: 71.1%
- viability, T/C [22]: 62.3%
- viability, T/C [23]: 30.5%
- viability, T/C [24]: 35.6%
- viability, T/C [25]: 76.1%
- viability, T/C [26]: 75.6%
- viability, T/C [27]: 65.9%
- viability, T/C [28]: 44.5%
- viability, T/C [29]: 27.9%
- viability, T/C [30]: 19.3%
- viability, T/C [31]: 62%
- viability, T/C [32]: 63.5%
- viability, T/C [33]: 57.3%
- viability, T/C [34]: 55.7%
- viability, T/C [35]: 20.6%
- viability, T/C [36]: 7.17%

SMILES: O=C(c1cc(Cc2n[nH]c(=O)c3ccccc23)ccc1F)N1CCN(C(=O)C2CC2)CC1 + CN(C)c1ccc(Nc2c3ccc(NC(=O)CCN4CCCC4)cc3nc3cc(NC(=O)CCN4CCCC4)ccc23)cc1
- IC50 (second compound 0.0316 µM): > 10000 nM
- IC50 (second compound 0.1 µM): > 10000 nM
- IC50 (second compound 0.316 µM): > 10000 nM
- IC50 (second compound 1 µM): > 10000 nM
- IC50 (second compound 3.16 µM): > 10000 nM
- IC50 (second compound 10 µM): > 10000 nM
- viability, T/C [1]: 117%
- viability, T/C [2]: 93.1%
- viability, T/C [3]: 89.7%
- viability, T/C [4]: 92.4%
- viability, T/C [5]: 95.3%
- viability, T/C [6]: 88.8%
- viability, T/C [7]: 101%
- viability, T/C [8]: 100%
- viability, T/C [9]: 103%
- viability, T/C [10]: 106%
- viability, T/C [11]: 85.3%
- viability, T/C [12]: 72.5%
- viability, T/C [13]: 90.6%
- viability, T/C [14]: 88.1%
- viability, T/C [15]: 105%
- viability, T/C [16]: 93.5%
- viability, T/C [17]: 97.1%
- viability, T/C [18]: 80%
- viability, T/C [19]: 83.3%
- viability, T/C [20]: 80%
- viability, T/C [21]: 87%
- viability, T/C [22]: 73.3%
- viability, T/C [23]: 76.7%
- viability, T/C [24]: 63.8%
- viability, T/C [25]: 79.4%
- viability, T/C [26]: 65.2%
- viability, T/C [27]: 84.4%
- viability, T/C [28]: 73.2%
- viability, T/C [29]: 70.5%
- viability, T/C [30]: 69.5%
- viability, T/C [31]: 72.1%
- viability, T/C [32]: 74.2%
- viability, T/C [33]: 69.9%
- viability, T/C [34]: 75.9%
- viability, T/C [35]: 90.1%
- viability, T/C [36]: 69.6%

SMILES: O=C(NO)c1cnc(N2CCN(S(=O)(=O)c3ccc4ccccc4c3)CC2)nc1 + Cc1cnc(CNC(=O)c2c(=O)c3ccc(N4CCCN(C)CC4)nc3n3c2sc2ccccc23)cn1
- IC50 (second compound 0.0316 µM): 549 nM
- IC50 (second compound 0.1 µM): 450 nM
- IC50 (second compound 0.316 µM): 437 nM
- IC50 (second compound 1 µM): 434 nM
- IC50 (second compound 3.16 µM): 182 nM
- IC50 (second compound 10 µM): 183 nM
- viability, T/C [1]: 77.4%
- viability, T/C [2]: 83.3%
- viability, T/C [3]: 65.4%
- viability, T/C [4]: 31.2%
- viability, T/C [5]: 13.7%
- viability, T/C [6]: 0.25%
- viability, T/C [7]: 117%
- viability, T/C [8]: 79.7%
- viability, T/C [9]: 56.6%
- viability, T/C [10]: 40%
- viability, T/C [11]: 10.4%
- viability, T/C [12]: 0.28%
- viability, T/C [13]: 102%
- viability, T/C [14]: 78.9%
- viability, T/C [15]: 63.3%
- viability, T/C [16]: 26.1%
- viability, T/C [17]: 12.7%
- viability, T/C [18]: 0.32%
- viability, T/C [19]: 80.5%
- viability, T/C [20]: 70.4%
- viability, T/C [21]: 60%
- viability, T/C [22]: 28.4%
- viability, T/C [23]: 9.39%
- viability, T/C [24]: 0.18%
- viability, T/C [25]: 80.6%
- viability, T/C [26]: 59.6%
- viability, T/C [27]: 39.8%
- viability, T/C [28]: 23.7%
- viability, T/C [29]: 0.23%
- viability, T/C [30]: 0.18%
- viability, T/C [31]: 60.2%
- viability, T/C [32]: 58.5%
- viability, T/C [33]: 42%
- viability, T/C [34]: 20.5%
- viability, T/C [35]: 0.26%
- viability, T/C [36]: 0.22%

SMILES: CCCS(=O)(=O)Nc1ccc(F)c(C(=O)c2c[nH]c3ncc(-c4ccc(Cl)cc4)cc23)c1F + Cc1[nH]c2ccc(F)cc2c1-c1nc2c3cccnc3c3ncccc3c2[nH]1
- IC50 (second compound 0.0316 µM): > 10000 nM
- IC50 (second compound 0.1 µM): > 10000 nM
- IC50 (second compound 0.316 µM): > 10000 nM
- IC50 (second compound 1 µM): 7430 nM
- IC50 (second compound 3.16 µM): < 31.6 nM
- IC50 (second compound 10 µM): 8370 nM
- viability, T/C [1]: 98.7%
- viability, T/C [2]: 106%
- viability, T/C [3]: 112%
- viability, T/C [4]: 130%
- viability, T/C [5]: 123%
- viability, T/C [6]: 65.2%
- viability, T/C [7]: 110%
- viability, T/C [8]: 106%
- viability, T/C [9]: 116%
- viability, T/C [10]: 124%
- viability, T/C [11]: 125%
- viability, T/C [12]: 65.6%
- viability, T/C [13]: 97.6%
- viability, T/C [14]: 89.8%
- viability, T/C [15]: 90%
- viability, T/C [16]: 107%
- viability, T/C [17]: 130%
- viability, T/C [18]: 59.8%
- viability, T/C [19]: 71.8%
- viability, T/C [20]: 60.4%
- viability, T/C [21]: 88.2%
- viability, T/C [22]: 90.8%
- viability, T/C [23]: 102%
- viability, T/C [24]: 38.7%
- viability, T/C [25]: 17%
- viability, T/C [26]: 17.7%
- viability, T/C [27]: 14.4%
- viability, T/C [28]: 18.3%
- viability, T/C [29]: 13.9%
- viability, T/C [30]: 4.94%
- viability, T/C [31]: 65.9%
- viability, T/C [32]: 73.4%
- viability, T/C [33]: 77.7%
- viability, T/C [34]: 93.8%
- viability, T/C [35]: 110%
- viability, T/C [36]: 43.6%
